The source made the active and inactive calls. No cut-off for these calls is given here.
Key:
[1] = tested on: SK-N-AS; assay: Growth inhibition of human SK-N-AS cells at 4 uM after 24 hrs by MTT assay relative to control; type: functional; details: read-out: GI
[2] = tested on: SK-N-AS; assay: Growth inhibition of human SK-N-AS cells at 4 uM after 72 hrs by MTT assay relative to control; type: functional; details: read-out: GI
[3] = tested on: IMR-32; assay: Growth inhibition of human IMR32 cells at 0.4 uM after 72 hrs by MTT assay relative to control; type: functional; details: IMR-32, 72 h, read-out: GI
[4] = tested on: IMR-32; assay: Growth inhibition of human IMR32 cells at 0.1 uM after 72 hrs by MTT assay relative to control; type: functional; details: IMR-32, 72 h, read-out: GI
[5] = tested on: IMR-32; assay: Reduction in N-myc mRNA expression level in human IMR32 cells at 4 uM after 24 hrs by real-time PCR method relative to control; type: functional; design: scale not given: the % may be the effect or the level left
[6] = tested on: SK-N-AS; assay: Induction of apoptosis in human SK-N-AS cells assessed as increase in caspase-3 activity at 4 uM after 24 hrs by CPP32 based colorimetric assay relative to control; type: functional
[7] = tested on: IMR-32; assay: Growth inhibition of human IMR32 cells at 0.1 uM after 24 hrs by MTT assay relative to control; type: functional; details: IMR-32, 24 h, read-out: GI
[8] = tested on: SK-N-AS; assay: Growth inhibition of human SK-N-AS cells at 1 uM after 24 hrs by MTT assay relative to control; type: functional; details: read-out: GI
[9] = tested on: IMR-32; assay: Growth inhibition of human IMR32 cells at 0.01 uM after 72 hrs by MTT assay relative to control; type: functional; details: IMR-32, 72 h, read-out: GI
[10] = tested on: SK-N-AS; assay: Induction of apoptosis in human SK-N-AS cells assessed as decrease in Bcl-2 mRNA expression level at 4 uM after 24 hrs by real-time PCR method relative to control; type: functional; design: scale not given: the % may be the effect or the level left
[11] = tested on: SK-N-AS; assay: Growth inhibition of human SK-N-AS cells at 1 uM after 72 hrs by MTT assay relative to control; type: functional; details: read-out: GI
[12] = tested on: SK-N-AS; assay: Induction of apoptosis in human SK-N-AS cells assessed as increase in caspase-3 activity at 4 uM by CPP32 based colorimetric assay; type: functional, cell-based; details: TDE = time-dependent effect
[13] = tested on: IMR-32; assay: Reduction in N-myc mRNA expression level in human IMR32 cells at 4 uM after 8 hrs by real-time PCR method; type: functional, cell-based
[14] = tested on: SK-N-AS; assay: Cell cycle arrest in human SK-N-AS cells at 4 uM up to 72 hrs by propidium iodide staining based flow cytometry; type: functional
[15] = tested on: SK-N-AS; assay: Cell cycle arrest in human SK-N-AS cells assessed as increase in sub-G1 phase population at 4 uM after 24 hrs by propidium iodide staining based flow cytometry relative to control; type: functional
[16] = tested on: IMR-32; assay: Induction of apoptosis in human IMR32 cells assessed as decrease in Bcl-2 mRNA expression level at 4 uM after 24 hrs by real-time PCR method relative to control; type: functional; design: scale not given: the % may be the effect or the level left
[17] = tested on: IMR-32; assay: Induction of apoptosis in human IMR32 cells assessed as decrease in Bcl-2 mRNA expression level at 4 uM after 8 hrs by real-time PCR method; type: functional, cell-based

Row | Structure (SMILES) | inhibition of growth at 4 µM [1] [%] | inhibition of growth at 4 µM [2] [%] | inhibition of growth at 0.4 µM [3] [%] | inhibition of growth at 0.1 µM [4] [%] | Activity [5] [%] | fold change (FC) [6] | inhibition of growth at 0.1 µM [7] [%] | inhibition of growth at 1 µM [8] [%] | inhibition of growth at 0.01 µM [9] [%] | Activity [10] [%] | inhibition of growth at 1 µM [11] [%] | Activity [12] | Activity [13] | Activity [14] | fold change (FC) [15] | Activity [16] [%] | Activity [17]
1 | CCCCCCCCCC(=O)Nc1ccc(O)cc1 | 5 | 13 |  |  |  |  |  |  |  |  |  |  |  |  |  |  | 
2 | CC1=C(/C=C/C(C)=C/C=C/C(C)=C/C(=O)Nc2ccc(O)cc2)C(C)(C)CCC1 [FENRETINIDE] |  |  | 27 | 17 | 27 | 4.7 | 4 | 2 | 15 | 62 | 10 | Tde | inactive | Active | 5 | 69 | inactive
3 | CCCCCCCCCCNc1ccc(O)cc1 |  |  |  |  |  |  |  | 44 |  |  | 60 |  |  |  |  |  | 
